From US8486974B2 (priority 2007, dated 2013)
Entries after “also recorded” stand apart in the source; their conditions may differ. Read-outs that look alike come from different tables or passages of the source.

How the values were obtained:
in vitro = details: human, plasma, pH 7.4
[1] = tested on: human platelet aggregation to arachidonic acid; assay: Human platelet aggregation to arachidonic acid in platelet rich plasma; format: cell-based
Experimental: Blood was collected from healthy volunteers who had not taken any drugs known to affect platelet function for at least 14 days prior to the study. Platelet rich plasma (PRP) and washed platelet suspensions (2.5×10^8 platelets/ml) were prepared from blood as previously described.
Platelet aggregation was measured by light aggregometry as previously described. Briefly, PRP and washed platelet samples (2.5×10^8/ml) were placed in a whole blood ionized calcium lumi-aggregometer (Chronolog Corp., Havertown, Pa., U.S.A), and (BIO/DATA CORPORATION) and incubated for 10 min at 37° C., with stirring at 900 r.p.m., prior to the addition of aggregating agents. Aggregation was initiated by the addition of agonists, and monitored by Aggro-Link software for at least 6 min. For experiments using inhibitors, aggregation was initiated after 10 min preincubation with these compounds

GPIIb/IIIa = assay: Flow cytometry of activated GPIIb/IIIa (PAC-1) on platelets; format: cell-based, human; details: concentrations at which aspirin has no effect
Experimental: In order to analyze receptor expression on the surface of individual platelets and to minimize platelet activation caused by sample preparation procedures, no stirring or vortexing steps were used. The abundance of activated GPIIb/IIIa and P-selectin on the surface of platelets in the presence and absence of inhibitors was measured by flow cytometry. Platelet samples were first activated with agonists either collagen or ADP. When platelet aggregation reached 50% maximal light transmission the reaction was terminated by 10-fold dilution with physiologic saline. Resting platelets were used as control. In most of the experiments, platelets were preincubated with inhibitors for 10 min prior to the addition of agonists. Platelet samples were then incubated in the dark without stirring for 5 min at room temperature in the presence of saturating concentrations (10 μg/ml) of P-selectin (CD62P-APC). The activated GPIIb/IIIa platelet receptors were measured using PAC-1 monoclonal antibody at the same concentration as above. PAC-1 specifically recognizes an epitope on the high-affinity GPIIb/IIIa complex of activated platelets at or near the […]. Following incubation, samples were diluted in FACS Flow fluid and analyzed within 5 min using a BD FACSArray (BD Biosciences, Oxford, UK). Flow cytometry was performed on single stained platelet samples as described before^3. The instrument was set up to measure the size (forward scatter), granularity (side scatter) and cell fluorescence. A two-dimensional analysis gate of forward and side scatter was drawn in order to include single platelets and exclude platelet aggregates and microparticles. Antibody binding was measured by analyzing individual platelets for fluorescence. The mean fluorescence intensity was determined after correction for cell autofluorescence. For each sample, the fluorescence was analyzed using a logarithmic scale. Fluorescence histograms were obtained for 10,000 individual events. Data were analyzed using Cytometer RXP software and expressed as a percentage of control fluorescence in arbitrary units.

[2] = Hydrolysis in the presence of human intestinal microsomes (HIM), with or without esterase inhibitors; format: in vitro ADME; details: 0.1 mM, pH 7.4
TXB2 synthesis = assay: Inhibition of TXB2 synthesis in clotting whole blood (ELISA); format: cell-based; details: 1 hour at 37° C., listed as ISAS
Experimental: TXA2 is highly evanescent and unsuitable for direct measurement but its metabolite TXB2 is generally believed to provide a useful index of the parent. […] The samples were then centrifuged. Serum was collected and TXB2 was measured using enzyme linked immunosorbent assay (ELISA) kits obtained from Cayman Chemicals.

[3] = Hydrolysis in rabbit plasma; format: in vitro ADME
Experimental: Pooled plasma/serum solutions (4 ml) were prepared to the correct strength by dilution of plasma with phosphate buffer pH 7.4 (e.g. for a 10% solution 0.4 ml of plasma/serum was added to 3.6 ml of phosphate buffer pH 7.4). Following equilibration of the plasma/serum sample at 37±0.5° C. 100 μl of a stock solution of test compound in acetonitrile (1×10^−4 M) was added and 250 μl aliquots were removed at specified time intervals. Samples were transferred to 1.5 ml Eppendorf tubes containing 500 μl of a 2% w/v solution of nSO4.7H2O (water:acetonitrile, 1:1). Tubes were vortexed for 2 minutes, then centrifuged at 10,000 rpm for 3 minutes at room temperature. Supernatant was aspirated off and analysed by HPLC. The concentration of test compound and metabolites were determined with reference to calibration curves run on that day in the same concentration range and under the same experimental conditions. […] The metabolic fate of the esters under these conditions was also determined by RPHPLC by measuring the concentration of drug and metabolites in the medium as a function of time. […] The BuChE activity of plasma and microsomal samples was determined using the Ellman assay (Ellman et al., 1964). […]

[4] = Hydrolysis in human blood; format: in vitro ADME
[5] = target: T1, purified human serum BuChE (Homo sapiens, UniProt P06276); assay: Hydrolysis by purified human serum butyrylcholinesterase; format: in vitro ADME; details: purified butyrylcholinesterase
T1 construct: Purified human serum butyrylcholinesterase (EC 3.1.1.8); purchased Sigma-Aldrich; host or cells: human serum
T1 sequence (P06276 29-602): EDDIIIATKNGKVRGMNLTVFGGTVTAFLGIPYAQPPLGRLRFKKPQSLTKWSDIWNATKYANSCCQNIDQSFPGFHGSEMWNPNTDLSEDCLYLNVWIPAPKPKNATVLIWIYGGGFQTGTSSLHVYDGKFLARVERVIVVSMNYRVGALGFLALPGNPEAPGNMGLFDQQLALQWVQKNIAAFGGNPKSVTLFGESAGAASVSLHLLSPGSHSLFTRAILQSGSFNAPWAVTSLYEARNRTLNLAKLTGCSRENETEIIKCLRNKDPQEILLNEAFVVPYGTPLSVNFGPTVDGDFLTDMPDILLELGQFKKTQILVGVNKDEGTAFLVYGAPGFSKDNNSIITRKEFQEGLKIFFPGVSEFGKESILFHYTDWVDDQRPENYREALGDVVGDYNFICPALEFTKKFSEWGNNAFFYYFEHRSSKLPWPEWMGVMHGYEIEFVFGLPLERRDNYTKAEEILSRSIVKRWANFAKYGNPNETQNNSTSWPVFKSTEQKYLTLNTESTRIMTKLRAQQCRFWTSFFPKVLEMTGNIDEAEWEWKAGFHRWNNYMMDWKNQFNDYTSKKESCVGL
Experimental: Pooled plasma/serum solutions (4 ml) were prepared to the correct strength by dilution of plasma with phosphate buffer pH 7.4 (e.g. for a 10% solution 0.4 ml of plasma/serum was added to 3.6 ml of phosphate buffer pH 7.4). Following equilibration of the plasma/serum sample at 37±0.5° C. 100 μl of a stock solution of test compound in acetonitrile (1×10^−4 M) was added and 250 μl aliquots were removed at specified time intervals. Samples were transferred to 1.5 ml Eppendorf tubes containing 500 μl of a 2% w/v solution of nSO4.7H2O (water:acetonitrile, 1:1). Tubes were vortexed for 2 minutes, then centrifuged at 10,000 rpm for 3 minutes at room temperature. Supernatant was aspirated off and analysed by HPLC. The concentration of test compound and metabolites were determined with reference to calibration curves run on that day in the same concentration range and under the same experimental conditions. In order to mimic conditions during the first passage of the drugs after intestinal absorption selected compounds were incubated in phosphate buffer at 37° C. in the presence of microsomes from human liver (HLM) and intestinal epithelium (HIM). The metabolic fate of the esters under these conditions was also determined by RPHPLC by measuring the concentration of drug and metabolites in the medium as a function of time. The identity of participating enzymes was confirmed by using purified enzyme in the case of plasma (BuChE) and by repeating the hydrolysis experiments in the presence of esterase specific inhibitors—isoOMPA for BuChE and BNPP for carboxylesterase. The BuChE activity of plasma and microsomal samples was determined using the Ellman assay (Ellman et al., 1964).

[6] = Hydrolysis in the presence of human liver microsomes (HLM), with or without esterase inhibitors; format: in vitro ADME
MDA synthesis = MDA synthesis by washed platelets; format: cell-based
[7] = female, human, 0.1 mM, pH 7.4
[8] = tested on: esterases found in CACO-2 cells; assay: Stability towards esterases found in CACO-2 cells; format: in vitro ADME

CC(=O)Oc1ccccc1C(=O)O[C@H]1CO[C@H]2[C@@H]1OC[C@H]2OC(=O)c1ccccc1O [Compound 2, Isosorbide-2-aspirinate-5-salicylate]
half-life at 2.4 µM (in vitro): 2 min
potency relative to aspirin, inhibition of arachidonic acid-induced human platelet aggregation [1]: significantly more potent than aspirin
constitutive platelet glyco-protein expression (GPIIb/IIIa): dampens constitutive platelet glyco-protein expression
Drug disappearance [2]: 5 min
Drug disappearance: drug left ([2]; 60 min): 9.4 μM left
inhibition of TXB2 (TXA2) synthesis (TXB2 synthesis): effective in preventing the TXA2 synthesis; also recorded: significantly more potent than aspirin
Drug disappearance ([3]; 50% Rabbit Plasma, conc drug 0.1 mM): 20 min
Drug disappearance time ([3]; rabbit, 0.1 mM, pH 7.4): 10 min
half-life [4]: < 2 min
conversion to aspirin in the presence of purified butyrylcholinesterase [5]: almost complete conversion to aspirin
Drug disappearance ([6]; HLM/isoOMPA (10 uM), conc drug […]): 10 min
Drug disappearance ([6]; human, 0.1 mM, pH 7.4): 10 min
MDA synthesis by washed platelets (MDA synthesis): effective
Drug disappearance [7]: 10 min
stability towards esterases found in CACO-2 cells [8]: stable
